The values that follow come from publication PMC4393935, “A Pharmacokinetic Study of Antimalarial 3,5-Diaryl-2-aminopyridine Derivatives” (Malaria Research and Treatment, 2015).

One series relates to P. berghei. Also on record: method as in PMID 23189922. Conditions: result in words; cited from earlier work.
On the set-up of series [1]: method as in PMID 23189922. Particulars: result in words; cited from earlier work.
Series [2] deals with human Ether-à-go-go-Related Gene (hERG). Also on record: method as in PMID 23189922. Particulars: result in words; cited from earlier work.
Series [3] can be described thus: Pharmacokinetic study in C57BL/6 mice after oral and intravenous dosing, blood levels by LC-MS/MS. Type of series: in vivo. Conditions: for T 1/2 (apparent terminal half-life) / Cmax / half-life / AUC(0-inf) / clearance / Vd: mean ± SD of five mice; for Cmax: read-out: C Max (maximum blood concentration); for half-life: read-out: T 1/2 (apparent terminal half-life); for bioavailability: read-out: BA (oral bioavailability); for AUC(0-inf) / clearance / Vd: mouse; for AUC(0-inf): read-out: AUC0–∞ (total exposure) (converted); for clearance: read-out: CL (blood clearance); for Vd: read-out: Vss (volume of distribution). As for the experimental part:
Male and female C57BL/6 mice (20–30 g) were obtained from the University of Cape Town Medical School Animal Unit. The mice were housed in ventilated cages at room temperature (approximately 22°C) with a constant supply of food and water and were monitored twice daily. The study was authorized by the University of Cape Town's Faculty of Health Science Animal Research Ethics Committee before its commencement (Reference number 012/020). All the work was performed according to the guidelines established by Austin and colleagues.
The compounds (Figure 1) were dissolved in DMSO and diluted further with phosphate buffered saline (PBS) to give a final DMSO concentration of 1%.
Comprehensive PK studies were performed on groups of five animals to determine the pharmacokinetic properties of the test compounds. This involved the oral dosing (200 μL) of 10-week-old C57BL/6 male mice at 20 mg/kg and intravenous dosing (100 μL) under anesthesia at 4 mg/kg via the dorsal penile vein. For the oral dosage a gavage needle was used for the administration of test compounds directly into the lower esophagus or stomach. Blood samples (approximately 30 μL) were collected serially by needle prick on the tail vein near to the tip of the tail at 0, 0.17, 0.5, 1, 2, 3, 5, 7, and 9 hours after dosing. Lithium-heparin-coated tubes were used to collect the blood samples. The collected blood samples were placed on ice immediately after sampling and were frozen at −80°C until analyzed.
The blood samples were brought to room temperature and then mixed by vortexing to ensure homogeneity. Twenty microliters of blood was mixed with 50 μL Milli-Q water and 150 μL acetonitrile. The sample was vortexed for 15 seconds, sonicated for 10 minutes, and centrifuged at 13000 ×g for 5 minutes. The supernatant was transferred to a flat-bottom glass insert and placed in a glass vial for analysis.
The liquid chromatography (LC) system employed was an ultrafast liquid chromatography (UFLC) system (Shimadzu) and the separation of the compounds was performed on a Phenomenex, Luna 5 μm PFP(2), 100 Å, and 50 mm × 2 mm analytical column. For method development, the compounds were prepared at 1 mg/mL stock in methanol and were further diluted with 50% acetonitrile: 0.1% formic acid to make a final concentration of 1 μg/mL. Analyst software version 1.5.2 (AB Sciex) was employed for data acquisition, peak-area integration, and quantitation of compounds in blood samples.
The mobile phase A consisted of 0.1% formic acid in water (v/v) and mobile phase B consisted of acetonitrile. Samples were maintained at 4°C until injection. The flow rate was set at 500 μL/min and the temperature of the column was maintained at 40°C. For the separation of the compounds the mobile phase was increased from 5% to 95% B over 2 minutes and returned to 5% B within 0.1 minutes and then equilibrated for 3 minutes. Calibration curves were derived in each analytical run in duplicate and were employed to extrapolate the concentration of the compounds in the blood samples.
The MS system consisted of an AB Sciex 3200 Q-Trap mass spectrometer which was operated at unit resolution in the multiple reaction monitoring (MRM) mode. The calibration range for all the compounds was between 7.8 and 1000 ng/mL and the accuracy (%Nom) for the calibration curves was between 90.31 and 104.0%.
Noncompartmental analysis was performed on each individual set of data using PK Solutions 2.0 Pharmacokinetic Analysis Software (Summit Research Services, Montrose, USA), which uses an automated Excel-based program. […]

The conditions of series [4]: male Sprague Dawley rats, cited from earlier work.
The mark [5] stands for this setting: male, C57BL/6, mouse, whole blood, iv, 4 mg/kg, IV, 4 mg/kg, blood.
Setting [6] is: male, C57BL/6, mouse, whole blood, oral, oral 20 mg/kg vs IV 4 mg/kg.
Where [7] appears, read: male, C57BL/6, mouse, whole blood, po, 20 mg/kg, oral, 20 mg/kg, blood.
Setting [8] is: male, C57BL/6, mouse, whole blood, po, 20 mg/kg, oral, 20 mg/kg, blood, read-out: T Max.
[9] abbreviates: male, whole blood, IV, 4 mg/kg, blood.
Setting [10] is: male, whole blood, oral, 20 mg/kg, blood.
The mark [11] stands for this setting: oral, 20 mg/kg, blood, 20 mg/kg.

The structures appear in SMILES notation. Read-outs that look alike come from different tables or passages of the source.

In the case of `Nc1ncc(-c2ccc(C(=O)N3CCOCC3)cc2)cc1-c1ccc(C(F)(F)F)cc1` [Compound 1], the “activity in a P. berghei infected mouse model” value in the series on P. berghei is “displayed activity”. The metabolic stability result in series [1] is on record as “showed metabolic stability”. In series [2], the “hERG activity compared to the parent compound 3” value is on record as “reduced hERG activity”. Also, the “T 1/2 (apparent terminal half-life)” value came to 0.87 ± 0.03 h in series [3] (IV, 4 mg/kg, blood) and 2.53 ± 0.1 h in series [3] (oral, 20 mg/kg, blood). Further, the Cmax in series [3] (setting [5]) worked out at 2110 ± 60 nM; in series [3] (setting [7]), 1900 nM; in series [3] (setting [11]) it was 1920 ± 30 nM. Moreover, the half-life in series [3] (setting [5]) was 0.68 to 0.87 h; in series [3] (setting [7]), 2.5 to 3 h. Besides, the bioavailability in series [3] (setting [6]) amounted to 69 ± 19%. Further, the Tmax in series [3] (setting [8]) was at most 1 h. Moreover, the AUC(0-inf) in series [3] (setting [9]) is 1.72 µM·h; in series [3] (setting [10]) it was 5.99 µM·h. Further, the clearance in series [3] (male, whole blood, IV, 4 mg/kg) was 83.6 ± 12 mL/min/kg. In series [3] (male, whole blood, IV, 4 mg/kg), the Vd was 9.51 ± 1 L/kg. In addition, the “T Max” value in series [3] (oral, 20 mg/kg, blood) worked out at 1 h.
Turning to `CNS(=O)(=O)c1ccc(-c2cnc(N)c(-c3ccc(C(F)(F)F)nc3)c2)cc1` [Compound 2], the “activity in a P. berghei infected mouse model” value in the series on P. berghei was “displayed activity”. Further, the metabolic stability entry in series [1] was “showed metabolic stability”. For the same compound, the “hERG activity compared to the parent compound 3” value in series [2] is “reduced hERG activity”. The “T 1/2 (apparent terminal half-life)” value worked out at 0.68 ± 0.6 h in series [3] (IV, 4 mg/kg, blood) and 2.96 ± 0.2 h in series [3] (oral, 20 mg/kg, blood). Moreover, the figures for the Cmax in series [3] (setting [5]), in series [3] (setting [7]) and in series [3] (setting [11]) were 960 ± 60 nM, 3300 nM and 3340 nM, respectively. The half-life in series [3] (setting [5]) was in the range of 0.68 to 0.87 h; in series [3] (setting [7]), 2.5 to 3 h. For the same compound, in series [3] (setting [6]), the bioavailability was 59.7%. For the same compound, the Tmax in series [3] (setting [8]) was at most 1 h; in series [3] (male, C57BL/6, mouse, whole blood, po, 20 mg/kg, oral, 20 mg/kg, blood, read-out: time to maximum concentration), at most 0.5 h. The AUC(0-inf) in series [3] (setting [9]) was 1.75 µM·h; in series [3] (setting [10]), 5.23 µM·h. Besides, the clearance in series [3] (male, whole blood, IV, 4 mg/kg) came to 92.6 ± 19 mL/min/kg. For the same compound, the Vd in series [3] (male, whole blood, IV, 4 mg/kg) was found to be 27 ± 1.3 L/kg. Moreover, the “BA (oral bioavailability)” value in series [3] (oral 20 mg/kg vs IV 4 mg/kg) was determined as 60 ± 5%.
Consider `COc1ccc(-c2cc(-c3ccc(S(C)(=O)=O)cc3)cnc2N)cn1` [Compound 3], for which the entries for the “apparent t 1/2” value in series [4] (dosed intravenously) and in series [4] (dosed orally) were 8 h and 6.5 h, respectively. Further, the AUC in series [4] (intravenous) is 789 µM·min; in series [4] (oral) it was 6880 µM·min. Also, the clearance rate in series [4] was 18.3 mL/min/kg. Also, in series [4], the oral bioavailability is given as over 100%.
